Measurements: publication PMC3068151 (PLoS ONE, 2011)

Columns and labels:
EphA2-ephrinA1 binding = target: T1, EphA2-ephrinA1 binding (Mus musculus, UniProt Q03145); experiment: ELISA EphA2-ephrinA1 binding (displacement and saturation); details: for decrease of EphA2-ephrinA1 binding: bile acids, repeat of the 200 µM experiment
T1 construct: we immobilized EphA2-Fc- ectodomain on proper ELISA plates; purchased R&D systems 639-A2 (EphA2-Fc); BT602 (biotinylated ephrinA1-Fc)
Experimental: Our chemical collection (Table S1) was stocked in a 20 mM dimethyl sulfoxide (DMSO) solution and we performed binding assay at a concentration of 200 µM. Only compounds displacing more than 40% ephrinA1 from EphA2 receptor were considered for a full concentration-binding curve. […] The day after wells were washed three times with washing buffer (PBS +0.05% tween20, pH 7.5) and blocked with 300 µl of blocking solution (PBS +0.5% BSA) for 1 hour at 37°C. Compounds were added to the wells at proper concentration in 1% dimethyl sulfoxide (DMSO) and incubated at 37°C for 1 hour. Biotinylated ephrinA1-Fc (R&D BT602) was added at 37°C for 4 hours at 30 ng/ml in displacement assays or in a range from 1 to 2000 ng/ml in saturation studies. […] The reaction was stopped with 3N HCl 100 µl/well and the absorbance was measured using an ELISA plate reader (Sunrise, TECAN, Switzerland) at 450 nm.
The IC50 value was determined using one-site competition non-linear regression and Kd values of the curves with or without antagonists were calculated using one-binding site non-linear regression analysis with Prism software (GraphPad Software Inc.). The Ki was obtained using Schild plot where Log[DR-1] is a function of the negative Log10 of the inhibitor concentration. The Hill's coefficient was calculated using linear fitting to evaluate whether the inhibition was competitive or uncompetitive.
To identify compounds interfering with EphA2-ephrinA1 binding we immobilized EphA2-Fc- ectodomain on proper ELISA plates and binding of biotinylated-ephrin-A1-Fc was detected using the colorimetric reaction developed by streptavidine-HRP and tetramethylbenzidine.

EphA2 [1] = target: T2, EphA2 (Homo sapiens, UniProt P29317); experiment: Phosphorylated-EphA2 sandwich ELISA in PC3 cell lysates; format: cell-based; parameters: their known ability to naturally express EphA2; endogenous in cells; host or cells: PC3 (A5); details: PC3 cells, 100 µM
Experimental: (§1) Cells were seeded in 12-well plates at concentration of 10^5cells/ml in complete medium until they reached ∼40% confluence and serum starved overnight. The day after cells were treated with compounds under study, vehicle or standard drug, stimulated with the proper agonist, rinsed with sterile PBS and solubilized in lysis buffer. The lysates were resuspended and rocked at 4°C for 30 minutes and then centrifuged at 14000 xg for 5 minutes. The protein content of supernatant was measured with BCA protein assay kit (Thermo scientific), standardized to 200 µg/ml and transferred into a clean test tube ready to be used.
(§2) EphA2-, EphB4- and EGFR-phosphorylation were measured in cell lysates using DuoSet®IC Sandwich ELISA (RnD Systems, #DYC4056, #DYC4057 and #DYC1095, respectively) following manufacturer's protocol. […] The day after wells were washed and blocked for 1 hour at room temperature. After that, wells were washed and 100 µl/well of lysates were added at room temperature for 2 hours; wells were washed and incubated with Detection Antibody at room temperature for 2 hours.
(§3) EphB4 phosphorylation was stimulated with 3 µg/ml ephrinB2-Fc, preclustered with 0.3 µg/ml IgG Fc fragment on T47D cells (G, H, I). […] Phospho-EphA2/B4 levels are relative to ephrinA1/B2-Fc+DMSO. Data are the means of at least three independent experiment ± st. err. One-way ANOVA followed by Dunnet's post test was performed comparing Fc to all other columns for Fig A, D, G and ephrinA1-Fc+DMSO to all other columns for Fig B,C,E, F, H, I. *, p<0.05, **, p<0.01.

EphA2 [2] = target: T2, EphA2; experiment: Phosphorylated-EphA2 sandwich ELISA in HT29 cell lysates; format: cell-based; parameters: their known ability to naturally express EphA2; endogenous in cells; host or cells: HT29 (A6); details: HT29 cells, 100 µM
Experimental: as §1, §2, §3

T1 sequence (Q03145 26-538 limits assumed): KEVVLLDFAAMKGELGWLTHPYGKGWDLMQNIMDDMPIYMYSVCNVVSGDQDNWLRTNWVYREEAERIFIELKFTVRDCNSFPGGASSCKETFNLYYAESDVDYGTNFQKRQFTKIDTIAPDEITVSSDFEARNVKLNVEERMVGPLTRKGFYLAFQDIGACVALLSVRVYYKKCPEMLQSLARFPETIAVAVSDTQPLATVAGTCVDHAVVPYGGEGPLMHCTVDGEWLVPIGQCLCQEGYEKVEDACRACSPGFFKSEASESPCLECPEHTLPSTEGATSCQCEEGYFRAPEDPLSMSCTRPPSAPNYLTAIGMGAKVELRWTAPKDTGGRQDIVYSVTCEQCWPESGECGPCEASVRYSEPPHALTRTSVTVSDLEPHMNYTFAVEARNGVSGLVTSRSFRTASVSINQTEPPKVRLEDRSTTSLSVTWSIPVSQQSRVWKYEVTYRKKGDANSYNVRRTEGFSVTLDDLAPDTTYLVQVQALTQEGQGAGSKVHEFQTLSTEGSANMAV
T2 sequence (P29317 24-976): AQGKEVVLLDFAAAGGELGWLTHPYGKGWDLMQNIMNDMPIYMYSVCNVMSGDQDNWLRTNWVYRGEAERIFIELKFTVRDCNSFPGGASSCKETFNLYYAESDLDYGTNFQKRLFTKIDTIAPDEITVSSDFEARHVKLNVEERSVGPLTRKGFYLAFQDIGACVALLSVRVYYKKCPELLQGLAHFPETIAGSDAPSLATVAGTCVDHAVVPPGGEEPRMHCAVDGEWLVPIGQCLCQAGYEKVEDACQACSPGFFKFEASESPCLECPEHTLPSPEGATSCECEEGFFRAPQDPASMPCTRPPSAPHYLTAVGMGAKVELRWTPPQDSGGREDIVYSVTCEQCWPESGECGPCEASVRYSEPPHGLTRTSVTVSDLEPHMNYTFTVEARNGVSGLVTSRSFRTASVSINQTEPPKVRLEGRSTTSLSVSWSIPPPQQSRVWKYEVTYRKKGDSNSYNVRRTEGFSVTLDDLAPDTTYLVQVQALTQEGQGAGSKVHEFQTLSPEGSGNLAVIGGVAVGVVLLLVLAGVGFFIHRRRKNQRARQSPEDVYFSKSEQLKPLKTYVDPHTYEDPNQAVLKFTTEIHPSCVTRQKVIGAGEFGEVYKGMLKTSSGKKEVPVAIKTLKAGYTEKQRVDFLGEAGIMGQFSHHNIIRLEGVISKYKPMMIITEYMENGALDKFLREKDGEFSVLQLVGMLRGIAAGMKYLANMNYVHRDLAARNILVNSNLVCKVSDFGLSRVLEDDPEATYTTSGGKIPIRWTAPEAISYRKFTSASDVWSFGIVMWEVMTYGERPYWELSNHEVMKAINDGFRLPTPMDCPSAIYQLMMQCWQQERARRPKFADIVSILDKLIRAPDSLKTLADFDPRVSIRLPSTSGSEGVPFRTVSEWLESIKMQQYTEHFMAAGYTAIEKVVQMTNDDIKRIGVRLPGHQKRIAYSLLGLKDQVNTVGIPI

Molecule | decrease of EphA2-ephrinA1 binding (EphA2-ephrinA1 binding) | effect on Eph kinase phosphorylation as agonist or antagonist (EphA2 [1]) | effect on Eph kinase phosphorylation as agonist or antagonist (EphA2 [2]) | Ki of EphA2-biotinylated-ephrin-A1 binding inhibition (EphA2-ephrinA1 binding; assay validation, Figure S1)
C[C@H](CCC(=O)O)[C@H]1CC[C@H]2[C@@H]3CC[C@@H]4C[C@H](O)CC[C@]4(C)[C@H]3C[C@H](O)[C@]12C [DCA, deoxycholic] | did not displaced | inactive | inactive | –
C[C@H](CCC(=O)O)[C@H]1CC[C@H]2[C@@H]3[C@H](O)C[C@@H]4C[C@H](O)CC[C@]4(C)[C@H]3C[C@H](O)[C@]12C [CA, cholic] | did not displaced | inactive | inactive | –

Second part, the molecule after the results:

decrease of EphA2-ephrinA1 binding (EphA2-ephrinA1 binding) | effect on Eph kinase phosphorylation as agonist or antagonist (EphA2 [1]) | effect on Eph kinase phosphorylation as agonist or antagonist (EphA2 [2]) | Ki of EphA2-biotinylated-ephrin-A1 binding inhibition (EphA2-ephrinA1 binding; assay validation, Figure S1) | Molecule
did not displaced | inactive | inactive | – | C[C@H](CCC(=O)O)[C@H]1CC[C@H]2[C@@H]3[C@H](O)C[C@@H]4C[C@H](O)CC[C@]4(C)[C@H]3CC[C@]12C [CDCA, chenodeoxycholic]
– | – | – | 0.102 µg/mL | ephrinA1-Fc: recombinant ephrinA1-Fc protein, ligand of the EphA2-Fc receptor (protein, Ectodomain only, with the C-terminal IgG Fc carrier omitted; The Fc chimera is a disulfide-linked dimer; Limits follow the mature ectodomain without the signal peptide and GPI propeptide, by supplier) DRHIVFWNSSNPKFREEDYTVHVQLNDYLDIICPHYEDDSVADAAMERYTLYMVEHQEYVACQPQSKDQVRWNCNRPSAKHGPEKLSEKFQRFTPFILGKEFKEGHSYYYISKPIYHQESQCLKLKVTVNGKITHNPQAHVNPQEKRLQADDPEVQVLHSIGYS
